Values quoted from earlier work as cited in patent US20070082339A1, “Methods and compositions for screening for HDAC inhibitory activity” (priority 2005, published 2007).

System: BID
Settings: T cell leukemia cells; independently of caspase activity; cited from earlier work

Compound: O=C(CCCCCCC(=O)Nc1ccccc1)NO [SAHA]
- BID cleavage: cleaved
